Source: patent US4194006A, “Therapeutic application of acetyl-d,l-carnitine and other acyl derivatives of d,l-carnitine” (priority 1977, dated 1980)
Read-outs that look alike come from different tables or passages of the source.

Columns and labels:
isolated rabbit hearts [1] = test: cardiokinetic effect on isolated heart (Langendorff): contractile force after anoxia, positive inotropic effect; conditions: 10 minutes from interruption of anoxic period
Procedure: (§1) The cardiokinetic effect on isolated heart was also investigated as follows. Rabbit hearts isolated by the Langendorff method were perfused with oxygenized ringer solution at 38.2° C. The isometric contractions, electrocardiogram and coronary flow were recorded using a "Battaglia-Rangoni" polygraph. By removing the oxygen from the perfusion fluid, metabolic damage was induced in the cardia muscle, up to an 80% reduction in the cardiac contractile force.
(§2) Under these conditions of prolonged anoxia the aerobic glycolysis of the myocardium is slowed down, accompanied by the storage of acid catabolites due to both the accumulation of pyruvic acid and its conversion to lactic acid which cannot be utilized because of the depression of pyridine enzymes, such as LDH (lactodehydrogenase). This has repercussions on the anaerobic glycolysis affecting an ever increasing number of enzymes, accompanied by a progressive and increasingly critical exhaustion of the myocardium. Thus a whole series of cardiac muscle fatigue levels occurs which can be observed by the behavior of the examined parameters, namely the contractile force, coronary flow, heart rate and cardiac rhythm. As soon as the contractile force was reduced by 80%, the perfusion fluid was once again oxygenized either without adding other compounds (controls) or with the addition of the compounds under examination.
Table 3 below gives the percentage values of the contractile force of the heart, showing a positive inotropic effect, calculated after 10 minutes from the interruption of the anoxic period (myocardial restoration).

isolated rabbit hearts [2] = test: coronary vasodilator effect: coronary flow, isolated heart (Langendorff)
Procedure: as §1, §2

isolated rat atrium = test: antiarrhythmic effect, isolated rat atrium method of M. Libonati and G. Segre; conditions: Rattus norvegicus
female rats = test: antifatigue effect: rota-rod; assay type: in vivo, rat; conditions: Rattus norvegicus, ip, 0.25 h; for responders at 100 mg/kg: read-out: percentage of animals staying on the rota-rod more than 180 seconds, 100 mg/kg i.p.; for responders at 200 mg/kg: read-out: percentage of animals staying on the rota-rod more than 180 seconds, 200 mg/kg i.p.; for responders at 400 mg/kg: read-out: percentage of animals staying on the rota-rod more than 180 seconds, 400 mg/kg i.p.; for responders at 600 mg/kg: read-out: percentage of animals staying on the rota-rod more than 180 seconds, 600 mg/kg i.p.; for responders at 300 mg/kg: read-out: percentage of animals staying on the rota-rod more than 180 seconds, 300 mg/kg i.p.
Procedure: The antifatigue effect was also examined with the following results. The antifatigue effect was investigated by administering the compounds of the formula (I) according to the present application to female rats intraperitoneally in saline solution and saline solution alone to the controls by the same route. Every 15 minutes (sessions) after treatment, the animals were placed on a 6 cm diameter rod, rotating at 16 r.p.m. The percentage of the animals capable of staying on the rota-rod for a duration of more than 180 seconds was then recorded.

in vivo = conditions: mouse, in vivo, iv
Excerpt: The tolerance of acetyl-d,l-carnitine and of the other aforementioned acyl derivatives of the formula (I), as well as their salts were investigated by comparing the LD50 obtained by administering the compounds intravenously in mice with the LD50 obtained under the same experimental conditions by intravenous injection of d,l-carnitine.

[3] = read-out: Mean percent variation versus controls: excitability (-%)
[4] = read-out: Mean percent variation versus controls: frequency max (-%)
[5] = read-out: Mean percent variation versus controls: refractory period (+%)
[6] = read-out: Mean percent variation versus controls: rheobase (+%)
[7] = session 6 (every 15 minutes), * p < 0.05

## CC(=O)OC(CC(=O)[O-])C[N+](C)(C)C (racemic) [acetyl-d,l-carnitine]
Isolated rabbit hearts [1]; 1·10^-5 g/lt
  Contractile force, Mean ± S.E.: 77.5 ± 3.29%
Isolated rabbit hearts [1]; 1·10^-6 g/lt
  Contractile force, Mean ± S.E.: 32.5 ± 4.38%
Isolated rabbit hearts [1]; 5·10^-6 g/lt
  Contractile force, Mean ± S.E.: 42.9 ± 6.22%
Isolated rabbit hearts [2]; 1·10^-5 g/lt
  Coronary flow, Mean ± S.E.: 90.05 ± 7.10%
Isolated rabbit hearts [2]; 1·10^-6 g/lt
  Coronary flow, Mean ± S.E.: 75.80 ± 5.92%
Isolated rabbit hearts [2]; 5·10^-6 g/lt
  Coronary flow, Mean ± S.E.: 76.30 ± 11.9%
Isolated rat atrium; [3]
  inhibition at 0.001 µg/mL: 7.18%
  inhibition at 0.01 µg/mL: 18.6%
  inhibition at 0.1 µg/mL: 71%
Isolated rat atrium; [4]
  inhibition at 0.001 µg/mL: 6.08%
  inhibition at 0.01 µg/mL: 15%
  inhibition at 0.1 µg/mL: 23.6%
Isolated rat atrium; [5]
  activation at 0.001 µg/mL: 14.5%
  activation at 0.01 µg/mL: 16.8%
  activation at 0.1 µg/mL: 27.4%
Isolated rat atrium; [6]
  activation at 0.001 µg/mL: 3.32%
  activation at 0.01 µg/mL: 15.3%
  activation at 0.1 µg/mL: 21.7%
Female rats; session 1 (every 15 minutes)
  responders at 100 mg/kg: 0%
  responders at 200 mg/kg: 0%
  responders at 400 mg/kg: 0%
  responders at 600 mg/kg: 0%
Female rats; session 2 (every 15 minutes)
  responders at 100 mg/kg: 0%
  responders at 200 mg/kg: 0%
  responders at 400 mg/kg: 10%
  responders at 600 mg/kg: 0%
Female rats; session 3 (every 15 minutes)
  responders at 100 mg/kg: 0%
  responders at 200 mg/kg: 0%
  responders at 400 mg/kg: 10%
  responders at 600 mg/kg: 10%
Female rats; session 4 (every 15 minutes)
  responders at 100 mg/kg: 0%
  responders at 200 mg/kg: 30%
  responders at 400 mg/kg: 10%
  responders at 600 mg/kg: 20%
Female rats; session 5 (every 15 minutes)
  responders at 100 mg/kg: 0%
  responders at 400 mg/kg: 40%
  responders at 600 mg/kg: 40%
Female rats; session 6 (every 15 minutes)
  responders at 100 mg/kg: 10%
Female rats; session 5 (every 15 minutes), * p < 0.05
  responders at 200 mg/kg: 50%
Female rats; [7]
  responders at 200 mg/kg: 50%
  responders at 400 mg/kg: 50%
  responders at 600 mg/kg: 50%
In vivo
  LD50: ~770 mg/kg

## CCCCCCCCCCCCCCCC(=O)OC(CC(=O)[O-])C[N+](C)(C)C (racemic) [palmitoyl-d,l-carnitine]
Isolated rabbit hearts [1]; 1·10^-5 g/lt
  Contractile force, Mean ± S.E.: 38.2 ± 4.75%
Isolated rabbit hearts [1]; 1·10^-6 g/lt
  Contractile force, Mean ± S.E.: 27.8 ± 4.71%
Isolated rabbit hearts [1]; 5·10^-6 g/lt
  Contractile force, Mean ± S.E.: 33.4 ± 3.08%
Isolated rabbit hearts [2]; 1·10^-5 g/lt
  Coronary flow, Mean ± S.E.: 84.68 ± 7.20%
Isolated rabbit hearts [2]; 1·10^-6 g/lt
  Coronary flow, Mean ± S.E.: 78.15 ± 7.21%
Isolated rabbit hearts [2]; 5·10^-6 g/lt
  Coronary flow, Mean ± S.E.: 72.20 ± 12.73%
Isolated rat atrium; [3]
  inhibition at 0.001 µg/mL: 0%
  inhibition at 0.01 µg/mL: 3.01%
  inhibition at 0.1 µg/mL: 32.8%
Isolated rat atrium; [4]
  inhibition at 0.001 µg/mL: 16.9%
  inhibition at 0.01 µg/mL: 8.14%
  inhibition at 0.1 µg/mL: 80.5%
Isolated rat atrium; [5]
  activation at 0.001 µg/mL: 0%
  activation at 0.01 µg/mL: 13.7%
  activation at 0.1 µg/mL: 34.1%
Isolated rat atrium; [6]
  activation at 0.001 µg/mL: 22.2%
  activation at 0.01 µg/mL: 7.33%
  activation at 0.1 µg/mL: 6.91%
Female rats; session 1 (every 15 minutes)
  responders at 300 mg/kg: 0%
  responders at 400 mg/kg: 0%
  responders at 600 mg/kg: 0%
Female rats; session 2 (every 15 minutes)
  responders at 300 mg/kg: 0%
  responders at 400 mg/kg: 0%
  responders at 600 mg/kg: 0%
Female rats; session 3 (every 15 minutes)
  responders at 300 mg/kg: 0%
  responders at 400 mg/kg: 0%
  responders at 600 mg/kg: 0%
Female rats; session 4 (every 15 minutes)
  responders at 300 mg/kg: 0%
  responders at 400 mg/kg: 10%
  responders at 600 mg/kg: 20%
Female rats; session 5 (every 15 minutes)
  responders at 300 mg/kg: 10%
  responders at 400 mg/kg: 20%
  responders at 600 mg/kg: 20%
Female rats; session 6 (every 15 minutes)
  responders at 300 mg/kg: 10%
Female rats; [7]
  responders at 400 mg/kg: 20%
  responders at 600 mg/kg: 30%

## CCC(=O)OC(CC(=O)[O-])C[N+](C)(C)C (racemic) [propionyl-d,l-carnitine]
Isolated rabbit hearts [1]; 1·10^-5 g/lt
  Contractile force, Mean ± S.E.: 60.1 ± 3.12%
Isolated rabbit hearts [1]; 1·10^-6 g/lt
  Contractile force, Mean ± S.E.: 32.0 ± 5.06%
Isolated rabbit hearts [1]; 5·10^-6 g/lt
  Contractile force, Mean ± S.E.: 38.4 ± 4.86%
Isolated rabbit hearts [2]; 1·10^-5 g/lt
  Coronary flow, Mean ± S.E.: 89.27 ± 7.24%
Isolated rabbit hearts [2]; 1·10^-6 g/lt
  Coronary flow, Mean ± S.E.: 80.61 ± 7.56%
Isolated rabbit hearts [2]; 5·10^-6 g/lt
  Coronary flow, Mean ± S.E.: 78.76 ± 11.03%
Isolated rat atrium; [3]
  inhibition at 0.001 µg/mL: 2.24%
  inhibition at 0.01 µg/mL: 28.4%
  inhibition at 0.1 µg/mL: 14.7%
Isolated rat atrium; [4]
  inhibition at 0.001 µg/mL: 10.7%
  inhibition at 0.01 µg/mL: 11.4%
  inhibition at 0.1 µg/mL: 7.65%
Isolated rat atrium; [5]
  activation at 0.001 µg/mL: 8.16%
  activation at 0.01 µg/mL: 14%
  activation at 0.1 µg/mL: 19.3%
Isolated rat atrium; [6]
  activation at 0.001 µg/mL: 3.57%
  activation at 0.01 µg/mL: 51.3%
  activation at 0.1 µg/mL: 52.1%
Female rats; session 1 (every 15 minutes)
  responders at 300 mg/kg: 0%
  responders at 400 mg/kg: 0%
  responders at 600 mg/kg: 0%
Female rats; session 2 (every 15 minutes)
  responders at 300 mg/kg: 0%
  responders at 400 mg/kg: 0%
  responders at 600 mg/kg: 10%
Female rats; session 3 (every 15 minutes)
  responders at 300 mg/kg: 0%
  responders at 400 mg/kg: 10%
  responders at 600 mg/kg: 20%
Female rats; session 4 (every 15 minutes)
  responders at 300 mg/kg: 10%
  responders at 400 mg/kg: 20%
  responders at 600 mg/kg: 30%
Female rats; session 5 (every 15 minutes)
  responders at 300 mg/kg: 20%
  responders at 400 mg/kg: 20%
  responders at 600 mg/kg: 40%
Female rats; session 6 (every 15 minutes)
  responders at 300 mg/kg: 40%
Female rats; [7]
  responders at 400 mg/kg: 40%
  responders at 600 mg/kg: 40%
